Experimental data: ChEMBL document CHEMBL2413072, “Synthesis and in vitro anticancer studies of novel C-2 arylidene congeners of lantadenes” (2013)

Columns and labels:
Format in all cases: functional
Malme-3M [1] = test: Growth inhibition of human MALME-3M cells assessed as cell growth at 10 uM by sulforhodamine B assay; details: read-out: Activity
MDA-MB-435 = test: Growth inhibition of human MDA-MB-435 cells assessed as cell growth at 10 uM by sulforhodamine B assay; details: read-out: Activity
[2] = Growth inhibition of human HCC2998 cells assessed as cell growth at 10 uM by sulforhodamine B assay; details: HCC 2998, read-out: Activity
MDA-MB-231 = test: Growth inhibition of human MDA-MB-231 cells assessed as cell growth at 10 uM by sulforhodamine B assay; details: read-out: Activity
SK-MEL-5 [3] = test: Growth inhibition of human SK-MEL-5 cells assessed as growth inhibition at 10 uM by sulforhodamine B assay; details: read-out: GI
K562 = test: Growth inhibition of human K562 cells assessed as cell growth at 10 uM by sulforhodamine B assay; details: read-out: Activity
RPMI-8226 [4] = test: Growth inhibition of human RPMI8226 cells assessed as growth inhibition at 10 uM by sulforhodamine B assay; details: read-out: GI
HOP-92 = test: Growth inhibition of human HOP92 cells assessed as cell growth at 10 uM by sulforhodamine B assay; details: read-out: Activity
COLO 205 = test: Growth inhibition of human COLO205 cells assessed as growth inhibition at 10 uM by sulforhodamine B assay; details: read-out: GI
[5] = Growth inhibition of human Hs 578T cells assessed as growth inhibition at 10 uM by sulforhodamine B assay; details: read-out: GI
SNB-75 [6] = test: Growth inhibition of human SNB75 cells assessed as growth inhibition at 10 uM by sulforhodamine B assay; details: read-out: GI
HCT-116 = test: Growth inhibition of human HCT116 cells assessed as cell growth at 10 uM by sulforhodamine B assay; details: read-out: Activity
SNB-75 [7] = test: Growth inhibition of human SNB75 cells assessed as cell growth at 10 uM by sulforhodamine B assay; details: read-out: Activity
Malme-3M [8] = test: Growth inhibition of human MALME-3M cells assessed as growth inhibition at 10 uM by sulforhodamine B assay; details: read-out: GI
HL-60(TB) = test: Growth inhibition of human HL-60(TB) cells assessed as growth inhibition at 10 uM by sulforhodamine B assay; details: read-out: GI
OVCAR-3 = test: Growth inhibition of human OVCAR3 cells assessed as growth inhibition at 10 uM by sulforhodamine B assay; details: read-out: GI
LOX IMVI [9] = test: Growth inhibition of human LOXIMVI cells assessed as growth inhibition at 10 uM by sulforhodamine B assay; details: read-out: GI
UACC-62 = test: Growth inhibition of human UACC62 cells assessed as cell growth at 10 uM by sulforhodamine B assay; details: read-out: Activity
[10] = Growth inhibition of human NCI-ADR-RES cells assessed as cell growth at 10 uM by sulforhodamine B assay; details: read-out: Activity
HOP-62 = test: Growth inhibition of human HOP62 cells assessed as cell growth at 10 uM by sulforhodamine B assay; details: read-out: Activity
A498 = test: Growth inhibition of human A498 cells assessed as cell growth at 10 uM by sulforhodamine B assay; details: read-out: Activity
OVCAR-5 = test: Growth inhibition of human OVCAR5 cells assessed as growth inhibition at 10 uM by sulforhodamine B assay; details: read-out: GI
[11] = Growth inhibition of human EKVX cells assessed as cell growth at 10 uM by sulforhodamine B assay; details: read-out: Activity
NCI-H322M = test: Growth inhibition of human NCI-H322M cells assessed as growth inhibition at 10 uM by sulforhodamine B assay; details: read-out: GI
SF-295 = test: Growth inhibition of human SF295 cells assessed as cell growth at 10 uM by sulforhodamine B assay; details: read-out: Activity
MOLT-4 = test: Growth inhibition of human MOLT4 cells assessed as cell growth at 10 uM by sulforhodamine B assay; details: read-out: Activity
M14 [12] = test: Growth inhibition of human M14 cells assessed as growth inhibition at 10 uM by sulforhodamine B assay; details: read-out: GI
SF-268 = test: Growth inhibition of human SF268 cells assessed as cell growth at 10 uM by sulforhodamine B assay; details: read-out: Activity
SF-539 = test: Growth inhibition of human SF539 cells assessed as cell growth at 10 uM by sulforhodamine B assay; details: read-out: Activity
LOX IMVI [13] = test: Growth inhibition of human LOXIMVI cells assessed as cell growth at 10 uM by sulforhodamine B assay; details: read-out: Activity
TK-10 = test: Growth inhibition of human TK10 cells assessed as growth inhibition at 10 uM by sulforhodamine B assay; details: read-out: GI
OVCAR-4 = test: Growth inhibition of human OVCAR4 cells assessed as growth inhibition at 10 uM by sulforhodamine B assay; details: read-out: GI
SW-620 = test: Growth inhibition of human SW620 cells assessed as growth inhibition at 10 uM by sulforhodamine B assay; details: read-out: GI
IGROV-1 = test: Growth inhibition of human IGROV1 cells assessed as cell growth at 10 uM by sulforhodamine B assay; details: read-out: Activity
NCI-H460 [14] = test: Growth inhibition of human NCI-H460 cells assessed as cell growth at 10 uM by sulforhodamine B assay; details: read-out: Activity
HCT-15 = test: Growth inhibition of human HCT15 cells assessed as growth inhibition at 10 uM by sulforhodamine B assay; details: read-out: GI
SK-MEL-5 [15] = test: Growth inhibition of human SK-MEL-5 cells assessed as cell growth at 10 uM by sulforhodamine B assay; details: read-out: Activity
ACHN = test: Growth inhibition of human ACHN cells assessed as cell growth at 10 uM by sulforhodamine B assay; details: read-out: Activity
RPMI-8226 [16] = test: Growth inhibition of human RPMI8226 cells assessed as cell growth at 10 uM by sulforhodamine B assay; details: read-out: Activity
SR = test: Growth inhibition of human SR cells assessed as growth inhibition at 10 uM by sulforhodamine B assay; details: read-out: GI
PC-3 = test: Growth inhibition of human PC3 cells assessed as cell growth at 10 uM by sulforhodamine B assay; details: read-out: Activity
NCI-H460 [17] = test: Growth inhibition of human NCI-H460 cells assessed as growth inhibition at 10 uM by sulforhodamine B assay; details: read-out: GI
M14 [18] = test: Growth inhibition of human M14 cells assessed as cell growth at 10 uM by sulforhodamine B assay; details: read-out: Activity
SK-MEL-2 = test: Growth inhibition of human SK-MEL-2 cells assessed as growth inhibition at 10 uM by sulforhodamine B assay; details: read-out: GI
T47D = test: Growth inhibition of human T47D cells assessed as growth inhibition at 10 uM by sulforhodamine B assay; details: read-out: GI
RXF 393 [19] = test: Growth inhibition of human RXF393 cells assessed as cell growth at 10 uM by sulforhodamine B assay; details: read-out: Activity
UO-31 = test: Growth inhibition of human UO31 cells assessed as cell growth at 10 uM by sulforhodamine B assay; details: read-out: Activity
CCRF-CEM = test: Growth inhibition of human CCRF-CEM cells assessed as growth inhibition at 10 uM by sulforhodamine B assay; details: read-out: GI
RXF 393 [20] = test: Growth inhibition of human RXF393 cells assessed as growth inhibition at 10 uM by sulforhodamine B assay; details: read-out: GI

Question: Which growth at 10 µM (Malme-3M [1]) does the source give for COc1cc(/C=C2\C[C@]3(C)[C@H]4CC=C5[C@@H]6CC(C)(C)C[C@@H](O)[C@]6(C(=O)O)CC[C@@]5(C)[C@]4(C)CC[C@H]3C(C)(C)C2=O)ccc1O here?
Answer: The growth at 10 µM was 81.1%.

Question: What about the growth at 10 µM (MDA-MB-435) of the same compound?
Answer: Its growth at 10 µM is 97.7%.

Question: What about the growth at 10 µM [2] of the same compound?
Answer: Its growth at 10 µM is 95.2%.

Question: And the growth at 10 µM (MDA-MB-231)?
Answer: Its growth at 10 µM is 97.9%.

Question: And the inhibition of growth at 10 µM (SK-MEL-5 [3])?
Answer: The inhibition of growth at 10 µM was 11.9%.

Question: And the growth at 10 µM (K562)?
Answer: Its growth at 10 µM is 71.2%.

Question: And the inhibition of growth at 10 µM (RPMI-8226 [4])?
Answer: Its inhibition of growth at 10 µM is 40.5%.

Question: And the growth at 10 µM (HOP-92)?
Answer: Its growth at 10 µM is 70.9%.

Question: And the inhibition of growth at 10 µM (COLO 205)?
Answer: Its inhibition of growth at 10 µM is less than 10%.

Question: And the inhibition of growth at 10 µM [5]?
Answer: The inhibition of growth at 10 µM was less than 10%.

Question: What about the inhibition of growth at 10 µM (SNB-75 [6]) of the same compound?
Answer: Its inhibition of growth at 10 µM is 17.9%.

Question: What about the growth at 10 µM (HCT-116) of the same compound?
Answer: Its growth at 10 µM is 84.8%.

Question: And the growth at 10 µM (SNB-75 [7])?
Answer: The growth at 10 µM was 82.1%.

Question: And the inhibition of growth at 10 µM (Malme-3M [8])?
Answer: The inhibition of growth at 10 µM was 18.9%.

Question: What about the inhibition of growth at 10 µM (HL-60(TB)) of the same compound?
Answer: Its inhibition of growth at 10 µM is 28.9%.

Question: What about the inhibition of growth at 10 µM (OVCAR-3) of the same compound?
Answer: Its inhibition of growth at 10 µM is less than 10%.

Question: And the inhibition of growth at 10 µM (LOX IMVI [9])?
Answer: Its inhibition of growth at 10 µM is 11.6%.

Question: And the growth at 10 µM (UACC-62)?
Answer: Its growth at 10 µM is 75%.

Question: And the growth at 10 µM [10]?
Answer: Its growth at 10 µM is 92.7%.

Question: What about the growth at 10 µM (HOP-62) of the same compound?
Answer: The growth at 10 µM was 96.9%.

Question: And the growth at 10 µM (A498)?
Answer: Its growth at 10 µM is 115%.

Question: And the inhibition of growth at 10 µM (OVCAR-5)?
Answer: The inhibition of growth at 10 µM was less than 10%.

Question: What about the growth at 10 µM [11] of the same compound?
Answer: Its growth at 10 µM is 88.5%.

Question: What about the inhibition of growth at 10 µM (NCI-H322M) of the same compound?
Answer: Its inhibition of growth at 10 µM is less than 10%.

Question: And the growth at 10 µM (SF-295)?
Answer: The growth at 10 µM was 76.5%.

Question: What about the growth at 10 µM (MOLT-4) of the same compound?
Answer: Its growth at 10 µM is 63.3%.

Question: What about the inhibition of growth at 10 µM (M14 [12]) of the same compound?
Answer: Its inhibition of growth at 10 µM is less than 10%.

Question: What about the growth at 10 µM (SF-268) of the same compound?
Answer: Its growth at 10 µM is 109%.

Question: And the growth at 10 µM (SF-539)?
Answer: The growth at 10 µM was 96.1%.

Question: And the growth at 10 µM (LOX IMVI [13])?
Answer: The growth at 10 µM was 88.4%.

Question: And the inhibition of growth at 10 µM (TK-10)?
Answer: Its inhibition of growth at 10 µM is less than 10%.

Question: And the inhibition of growth at 10 µM (OVCAR-4)?
Answer: The inhibition of growth at 10 µM was 16.2%.

Question: What about the inhibition of growth at 10 µM (SW-620) of the same compound?
Answer: Its inhibition of growth at 10 µM is less than 10%.

Question: What about the growth at 10 µM (IGROV-1) of the same compound?
Answer: The growth at 10 µM was 97.8%.

Question: What about the growth at 10 µM (NCI-H460 [14]) of the same compound?
Answer: The growth at 10 µM was 102%.

Question: And the inhibition of growth at 10 µM (HCT-15)?
Answer: The inhibition of growth at 10 µM was 23.5%.

Question: And the growth at 10 µM (SK-MEL-5 [15])?
Answer: The growth at 10 µM was 88.1%.

Question: And the growth at 10 µM (ACHN)?
Answer: Its growth at 10 µM is 85.6%.

Question: And the growth at 10 µM (RPMI-8226 [16])?
Answer: The growth at 10 µM was 59.5%.

Question: What about the inhibition of growth at 10 µM (SR) of the same compound?
Answer: The inhibition of growth at 10 µM was 12.9%.

Question: What about the growth at 10 µM (PC-3) of the same compound?
Answer: The growth at 10 µM was 72.2%.

Question: What about the inhibition of growth at 10 µM (NCI-H460 [17]) of the same compound?
Answer: The inhibition of growth at 10 µM was less than 10%.

Question: What about the growth at 10 µM (M14 [18]) of the same compound?
Answer: Its growth at 10 µM is 103%.

Question: And the inhibition of growth at 10 µM (SK-MEL-2)?
Answer: Its inhibition of growth at 10 µM is less than 10%.

Question: What about the inhibition of growth at 10 µM (T47D) of the same compound?
Answer: The inhibition of growth at 10 µM was 18.9%.

Question: What about the growth at 10 µM (RXF 393 [19]) of the same compound?
Answer: The growth at 10 µM was 109%.

Question: What about the growth at 10 µM (UO-31) of the same compound?
Answer: Its growth at 10 µM is 75.5%.

Question: And the inhibition of growth at 10 µM (CCRF-CEM)?
Answer: The inhibition of growth at 10 µM was 18%.

Question: What about the inhibition of growth at 10 µM (RXF 393 [20]) of the same compound?
Answer: Its inhibition of growth at 10 µM is less than 10%.
